In assay [1] the test system is β-oxidation pathway. Description: Continuous fermentation, cofeeding of octanoic acid and glucose, increasing acrylic acid. It is filed as cell-based, Pseudomonas putida KT2440. The settings on record: inflow acrylic acid 0.2 g/L. The protocol:
(§1) Continuous fermentations were carried out in a 1.5 L stirred tank bioreactor (Bioflo IIc, New Brunswick Scientific, N.J., USA) with a working volume of 1.1 L. The fermentor was operated at 28.5±1° C. and the pH was automatically controlled at 6.85±0.05 using 2 N potassium hydroxide solution. The dissolved oxygen was monitored with an Ingold polarographic probe (available from Mettler-Toledo Ingold Inc., Bedford, Mass., USA) and maintained no lower than 30% air saturation with an aeration rate of 0.8 vvm (void volumes per minute) and an agitation speed up to 900 rpm. […] All other aqueous medium was mixed and fed together. The dilution rate of all continuous fermentations was controlled at […] by fixing the working volume and a constant aqueous medium feeding rate.
During shake flask, batch, fed-batch, or continuous cultivations, fermentation broth samples were taken. Known amounts of such broths were centrifuged to obtain the medium's supernatant and concentrated biomass. The biomasses were washed with distilled water, centrifuged again, re-suspended, frozen, and lyophilized to obtain dried biomass. […]
(§2) Dried samples were weighed to obtain dry biomass amounts. PHA content and composition were determined by gas chromatographic method as described below (Sun, Z., et al. (2007). Appl. Microbiol. Biotechnol., 74:69). […]

The subject of assay [2] is β-oxidation pathway. Briefly: Continuous fermentation, nonanoic acid as sole carbon source, increasing acrylic acid. It is filed as cell-based, Pseudomonas putida KT2440. Here is the method:
(§3) Continuous fermentations were carried out in a 1.5 L stirred tank bioreactor (Bioflo IIc, New Brunswick Scientific, N.J., USA) with a working volume of 1.1 L. The fermentor was operated at 28.5±1° C. and the pH was automatically controlled at 6.85±0.05 using 2 N potassium hydroxide solution. The dissolved oxygen was monitored with an Ingold polarographic probe (available from Mettler-Toledo Ingold Inc., Bedford, Mass., USA) and maintained no lower than 30% air saturation with an aeration rate of 0.8 vvm (void volumes per minute) and an agitation speed up to 900 rpm. Nonanoic acid was fed separately at controlled speed by a peristaltic nutrient pump on the bioreactor. All other aqueous medium was mixed and fed together. The dilution rate of all continuous fermentations was controlled at […] by fixing the working volume and a constant aqueous medium feeding rate.
During shake flask, batch, fed-batch, or continuous cultivations, fermentation broth samples were taken. Known amounts of such broths were centrifuged to obtain the medium's supernatant and concentrated biomass. The biomasses were washed with distilled water, centrifuged again, re-suspended, frozen, and lyophilized to obtain dried biomass. The supernatant was used to analyze carbon source, inhibitor, and nutrient concentration. […]
as §2
(§4) Known amount of dried biomass, or purified MCL-PHA, or MCL-PHA standard with known composition and elution time of each of its components, were reacted in 2 mL chloroform plus 1 mL methanol containing 15% (v/v) concentrated sulfuric acid as acidifying agent and 0.2% (w/v) benzoic acid as internal standard, at 100° C. for 4 hours. […] Methyl-3-hydroxyalkanoate was identified and its molar amount was calculated by comparing peak area to the corresponding peak of known methyl-3-hydroxyalkanoate generated from known MCL-PHA standard, which was characterized by NMR and GC/MS. […]

The subject of assay [3] is Pseudomonas putida KT2440. Briefly: Shake flask growth with acrylic acid, absorbance at 650 nm. It counts as cell-based. The settings on record: shake flasks. The protocol: A basic glucose-only shake flask medium was a 100 mL liquid medium in a 500 mL Erlenmeyer flask. The medium comprised (g L^−1): (NH4)2SO4 (4.70), MgSO4.7H2O (0.80), Na2HPO4.7H2O (12.0), KH2PO4 (2.70), glucose (9.0), nutrient broth (1.0).
The effect of acrylic acid on cell growth was determined using Pseudomonas putida KT2440 (ATCC 47054). Pseudonomas putida KT2440 (ATCC 47054) was maintained on nutrient agar plates at 4° C. before inoculation. The toxicity of a β-oxidation inhibitor, acrylic acid, to the growth of Pseudomonas putida KT2440 was determined by shake flask experiment. The cultivation conditions were 28° C. in a New Brunswick Shaker-Incubator at 200 rpm. The medium used was the basic glucose-only shake flask medium described above, plus appropriate amount of acrylic acid.
500 mL Erlenmeyer flasks were used with each containing 100 mL of medium. In addition to the basic medium described above, increasing concentrations of acrylic acid (AA) at 0, 0.2, 0.4, 0.8, 2.0 g/L were prepared in each flask. The first set of such flasks was cultured for 12 h and the second set of such flasks was cultured for 24 h. After the specified culturing time, a sample was taken to measure the absorbance at 650 nm in the spectrophotometer.

In assay [4] the test system is β-oxidation pathway. Briefly: Continuous fermentation, cofeeding of dodecanoic acid and glucose, increasing acrylic acid. It is filed as cell-based, Pseudomonas putida KT2440. The protocol:
as §1
During shake flask, batch, fed-batch, or continuous cultivations, fermentation broth samples were taken. Known amounts of such broths were centrifuged to obtain the medium's supernatant and concentrated biomass. The biomasses were washed with distilled water, centrifuged again, re-suspended, frozen, and lyophilized to obtain dried biomass. The supernatant was used to analyze carbon source, inhibitor, and nutrient concentration. The dried biomass was used to obtain the cell concentration, cellular PHA content and composition.
as §2, §4

For assay [5], the system named is β-oxidation pathway. Briefly: Fed-batch fermentation, cofeeding of nonanoic acid, glucose and acrylic acid. It counts as cell-based, Pseudomonas putida KT2440. The settings on record: nonanoic acid:glucose:acrylic acid 1.25:1:0.03 (w/w/w); by GC; throughout 32 hours fermentation. The protocol: Fed-batch fermentations were conducted in a 5 L stirred tank bioreactor with 3 L working volume (Minifors, INFORS HT, Bottmingen, Switzerland). The specific growth rate was controlled at 0.25 h^−1 or 0.15 h^−1 by exponentially feeding the carbon sources as growth-limiting nutrients. β-oxidation inhibitor was added with the glucose feeding solution at a fixed mass as specified in the related examples. […]
as §2, §4

In assay [6] the test system is β-oxidation pathway. Description: Continuous fermentation, cofeeding of nonanoic acid and glucose, increasing acrylic acid. It counts as cell-based, Pseudomonas putida KT2440. The following applies: inhibitor concentration increased from 0 to 0.15 g/L; value at highest concentration. The protocol:
as §3
During shake flask, batch, fed-batch, or continuous cultivations, fermentation broth samples were taken. Known amounts of such broths were centrifuged to obtain the medium's supernatant and concentrated biomass. […]
as §2

Regarding `C=CC(=O)O` [acrylic acid], the “mole percentage of C8” value with β-oxidation pathway [1] was found to be 98 mol %. In addition, in the assay on β-oxidation pathway [2] (acrylic acid 0.2 g L^−1, nonanoic acid only carbon source), the PHA content entry is given as “very little PHA content”. For the same compound, in the assay with β-oxidation pathway [2] (at increased inhibitor concentration, nonanoic acid only, maximum reached), the “molar C9 fraction of the PHA produced” value was “about 90%”. Also, the “acrylic acid concentration that affected monomeric composition” value in the assay on β-oxidation pathway [2] (inflow concentration, nonanoic acid only, steady state) stood at 0.02 g/L. In addition, the “reduction of Absorbance at λ=650 nm” value in assay [3] (acrylic acid 0.2 g L^−1, 12 h and 24 h cultures, glucose medium) is “two fold”. The cell growth result in assay [3] (acrylic acid greater than 0.4 g L^−1) is recorded as “either weak growth or no growth”. The “mole percentage of C12” value in the assay with β-oxidation pathway [4] (inflow acrylic acid 0.2 g/L (FIG. 10B)) is recorded as 60 mol %. In addition, the “molar C12 content” value in the assay on β-oxidation pathway [4] (inlet acrylic acid 0.1 g L^−1) was found to be 34.5%. Moreover, the “molar C12 content” value in the assay on β-oxidation pathway [4] (inlet acrylic acid 0.2 g L^−1) was found to be 59%. For the same compound, the “monomeric composition, C9 (3-OH-nonanoate)” value in the assay on β-oxidation pathway [5] amounted to 87.8±0.8 mol %. In the assay on β-oxidation pathway [6], the “intracellular PHN content” value is given as around 64% and the “mole percentage of C9” value is given as 96 mol %.

Source of the values: patent US8273852B2, “Medium chain length polyhydroxyalkanoate polymer and method of making same” (Queen's University at Kingston, priority 2009, dated 2012).
